Patent publication US12480950B2, “AKT-specific capture agents, compositions, and methods of using and making” (California Institute of Technology, priority 2011, dated 2025)
Read-outs that look alike come from different tables or passages of the source. Bridge positions count the residues as written; N and C are the ends. Square brackets hold non-standard residues; d marks the D form. Ends that are not written are not given here. I, II: the chains in the order shown. dPra = C#CC[C@@H](N)C(=O)O; C8N3 = not defined here

Experiments:
Akt [1] = assay: Immunofluorescent imaging of Akt in fixed OVCAR3 cells; type: cell-based; conditions: unstimulated or EGF-treated
Description: OVCAR3 cells were grown on polylysine coated coverslips and treated with either 500 ng/mL EGF (Sigma) or vehicle control for 10 minutes. Cells were then fixed with 10% formaldehyde for 15 min at 37° C., washed with PBS, permeablized by incubating with 0.1% Triton X-100 for 10 min at room temperature, and blocked with 5% goat serum. Permeabilized cells were stained with either a fluorescein-conjugated Pan Akt antibody (R&D Systems IC2055F, 10 μg/mL) overnight or 1 μM fluorescein conjugated biligand for 1 hour. Images were acquired using a Zeiss Pascal 5 Laser Scanning Microscope (Caltech Biological Imaging Center) and surface plots were generated with ImageJ software (NIH). For this assay, Akt was expected to locate to the cell membrane following stimulation of a receptor tyrosine kinase such as epidermal growth factor receptor (EGFR) by its ligand (EGF). Images of unstimulated and stimulated cells clearly reveal that this was the case (FIG. 18).

Akt2 = biological target: T1, Akt2 (Homo sapiens, UniProt P31751); assay: Akt2 kinase activity assay, p-GSK-3a/b Western blot; type: biochemical; conditions: p-GSK-3a/b abundance, active Akt2
T1 construct: purchased Abcam
T1 sequence (P31751 whole entry, species assumed): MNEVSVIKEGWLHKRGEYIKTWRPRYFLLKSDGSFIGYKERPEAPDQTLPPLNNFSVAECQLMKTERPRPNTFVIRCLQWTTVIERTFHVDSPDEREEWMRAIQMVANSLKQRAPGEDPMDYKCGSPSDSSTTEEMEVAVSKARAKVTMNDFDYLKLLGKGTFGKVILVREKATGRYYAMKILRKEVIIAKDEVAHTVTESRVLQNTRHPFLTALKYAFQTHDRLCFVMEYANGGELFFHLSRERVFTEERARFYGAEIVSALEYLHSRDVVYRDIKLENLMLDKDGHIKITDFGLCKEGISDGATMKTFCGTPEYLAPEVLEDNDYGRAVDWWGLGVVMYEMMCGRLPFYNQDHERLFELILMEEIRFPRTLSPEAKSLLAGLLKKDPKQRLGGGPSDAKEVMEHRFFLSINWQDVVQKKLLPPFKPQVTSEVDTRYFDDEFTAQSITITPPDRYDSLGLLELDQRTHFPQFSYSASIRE
From the text: PCC compositions, developed using the epitope targeting strategy, make non-traditional enzyme inhibitors. If Akt2 is activated by phosphorylation of Ser474 then, in that state, it phosphorylates GSK-3a/b. If it is further activated via a steric effect, then it will produce more p-GSK-3a/b. If that same Akt2 is inhibited, then it will produce less p-GSK-3a/b. Thus, the signature of Akt inhibition (or activation) is read out as p-GSK-3a/b abundance, relative to the DMSO control. Assays are shown at right in the form of Western Blots. The DMSO column gives the baseline level. The n-terminal triligand the biligand, the dimer of the n-terminal triligand, and the commercial monoclonal antibody all activate Akt relative to DMSO. The c-terminal triligand inhibits Akt. The ‘hi’ and ‘low’ blots correspond to long and short development times, respectively. The Akt2 protein used for the inhibition assay is active Akt2 that is phosphorylated at Thr308, and is at least partially phosphorylated at Ser474, since the antibody for pSer474 detects the pSer474.

Akt1 = assay: Specificity ELISA, immobilized ligand probed with His-tagged kinases; design: species or system H. sapiens; conditions: A450 normalized to Akt1-S473E binding; kinase panel
Description: (§1) Biotinylated ligand was immobilized on Streptavidin plates and probed with 25 nM His-tagged kinase followed by anti-Histag antibody-HRP conjugate. Values represent the mean A450 obtained from three experiments after normalization to Akt1-S473E binding. The error bars show the standard error.
(§2) The specificity of the anchor ligand, biligand, and triligand developed in Example 1 was analyzed using a battery of protein kinases. […] Akt1-S473E was expressed and purified as described above.
(§3) The relative affinity of each kinase was determined by probing with an anti-His6 antibody and normalizing the response to Akt1-S473E. All proteins were diluted in Akt blocking buffer to a final concentration of 24 nM prior to use. Ligands were diluted in Akt blocking buffer to a final concentration of 2.5 μM prior to use. 100 μL of each ligand (250 pmol) was added to each well of a HBC streptavidin-coated 96-well plate. The ligands were bound at 4° C. for 1 hour followed by addition of D-biotin to a final concentration of 500 μM. After 10 minutes at 4° C., the wells were washed three times with Akt blocking buffer and blocked overnight in 5% non-fat milk.
(§4) The wells were washed three times in Akt blocking buffer and 50 μL of active protein was applied to each well. After binding for 120 minutes at 4° C., the wells were washed three times in Akt blocking buffer to remove unbound protein. 50 μL of horseradish peroxidase-conjugated Anti-His6 antibody was added at a dilution of 1:100 (His Probe (H-3) HRP conjugate, Santa Cruz Biotechnology). The antibody-HRP conjugate was incubated for 60 minutes and the wells were washed 3 times in TBST and once in TBS. 50 μL of peroxidase substrate (KPL) was added and the resulting color change was quenched with 50 μL 1 M H2SO4. The A450 measured on a 96-well plate reader. […] The mean value for the triplicates was calculated and plotted and the error bars were generated from the standard error of the mean (GraphPad Prism).

Akt-S473E [2] = assay: ELISA with immobilized Akt-S473E, relative affinity of biotinylated ligands; type: binding, H. sapiens; conditions: triligand versus biligand
Description: Akt-S473E was immobilized on Ni-NTA plates and incubated with varying concentrations of biotinylated peptide. All values were normalized to the binding observed at saturation.
The affinity of the anchor ligand, biligand, and triligand developed in Example 1 was determined by ELISA with immobilized Akt-S473E.
3 μg of Akt-S473E was added to each well in a HisSorb Ni-NTA plate (Qiagen) in 50 μL of ELISA blocking buffer (25 mM Tris-Cl (pH=7.5), 150 mM NaCl, 10 mM MgCl2, 0.1% (v/v) Tween-20, and 4 mg/mL BSA). 50 μL of imidazole blocking buffer (25 mM Tris-Cl (pH=7.5), 150 mM NaCl, 10 mM MgCl2, 0.1% (v/v) Tween-20, 100 mM imidazole, and 4 mg/mL BSA) was added to the control wells. After 18 hours at 4° C., the wells were washed with ELISA blocking buffer and 50 μL of each ligand dilution was added in ELISA blocking buffer. The ligands were bound at 4° C. for 120 minutes followed by three washed in ELISA blocking buffer. 50 μL of horseradish peroxidase-conjugated streptavidin (SA-HRP, Thermo) was added (1:5000 dilution in ELISA blocking buffer) and incubated for 70 minutes at 4° C. […] 50 μL of peroxidase substrate (KPL) was added to generate the final signal which was quenched in 1 M H2SO4 and quantitated on a 96-well plate reader at X=450 nm. The Net A450 was calculated by subtracting the A450 of each blank well (No Akt-S473E) from the experimental well. […]

GSK3β = biological target: T2, GSK3β (Homo sapiens, UniProt P49841); assay: Specificity ELISA, immobilized ligand probed with His-tagged kinases; conditions: A450 normalized to Akt1-S473E binding
T2 construct: a set of His-tagged active protein kinase domains from the AGC family; purchased Invitrogen
T2 sequence (P49841 56-340 limits assumed, species assumed): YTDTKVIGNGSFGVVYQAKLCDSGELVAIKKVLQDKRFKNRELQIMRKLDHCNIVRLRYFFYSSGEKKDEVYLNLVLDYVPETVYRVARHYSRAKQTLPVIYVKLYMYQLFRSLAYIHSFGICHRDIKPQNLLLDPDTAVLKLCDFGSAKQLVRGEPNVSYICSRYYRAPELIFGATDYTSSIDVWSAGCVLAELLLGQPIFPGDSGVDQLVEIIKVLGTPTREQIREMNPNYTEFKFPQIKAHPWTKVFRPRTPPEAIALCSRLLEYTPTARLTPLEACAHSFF
Description: as §1, §2, §3, §4

Akt1-S473E = conditions: SPR, from kinetic parameters, 10° C., Akt1-S473E 9000 nM to 1 nM
Description: For this experiment, the biotinylated triligand was immobilized on a streptavidin-derivatized biacore chip and probed with Akt-S473E at concentrations ranging from 9 μM to 1 nM.
Triligand binding affinity was further analyzed by SPR using a Biacore T100. A Streptavidin Chip (Series S, G.E. Healthcare) was conditioned as recommended by the manufacturer. Biotinylated ligand was diluted into HBSP+ Buffer (G.E. Healthcare) to a final concentration of 100 nM and 137 RU was immobilized on the chip. Akt1-S473E was prepared as described previously and subjected to buffer exchange into HBSP+ using Zeba Desalting Columns (Pierce). Serial dilutions of the enzyme were made in HBSP+ buffer (9000 nM to 1 nM) and flowed over the chip at 50 μL/minute. Binding and dissociation were carried out at 10° C. with a contact time of 360 seconds, a dissociation time of 400 seconds, and a stabilization time of 200 seconds. The response was corrected using an unmodified reference flow cell. Kinetic constants were obtained from the sensograms and used to calculate the dissociation constant.

Akt1-S473E-T308P = biological target: Akt1-S473E-T308P
From the text: FIG. 22A: Velocity vs. [Peptide substrate] with varying concentration of inhibitory triligand. FIG. 22B: Velocity vs. [ATP] with varying concentration of inhibitory triligand.
FIGS. 23A-23D show determination of Ki′ and inhibition mode for triligand with respect to peptide substrate. FIG. 23A: Plot of 1/KM(app) vs. [Triligand]. KM(app) were obtained from nonlinear regression analysis of velocity vs. [Peptide] curves obtained with varied concentrations of triligand (Graphpad). The error bars represent the standard error of KM(app) by nonlinear regression. 95% confidence intervals are shown as dotted lines. […] FIG. 23B: Plot of 1/Vmax(app) vs. [Triligand]. Values for Vmax(app) and standard error were obtained by nonlinear regression as described above. […] FIG. 23C: Dixon plot of 1/v vs. [Triligand] at various [Peptide]. Data from low peptide concentrations were removed to account for possible substrate depletion. […] FIG. 23D: Cornish-Bowden plot of [Peptide]/v vs. [Triligand] at various [Peptide]. The intersection of the lines gives the −Ki′.
FIG. 24A: Plot of 1/KM(app) vs. [Triligand]. KM(app) were obtained from nonlinear regression analysis of velocity vs. [ATP] curves obtained with varied concentrations of triligand (Graphpad). The error bars represent the standard error of KM(app) by nonlinear regression. […] FIG. 24B: Plot of 1/Vmax(app) vs. [Triligand]. […] FIG. 24C: Dixon plot of 1/v vs. [Triligand] at various [ATP]. Data from low ATP concentrations were removed due high counting error resulting from low counts per minute (cpm).
Two standard enzyme kinetic assays were carried out to determine the mode of Akt1 inhibition by the triligand (Segel 1975). For these assays, the kinase activity is measured under varying substrate and triligand concentrations. The resulting data can be interpreted so that the nature of the competition between the triligand and the substrate for the relevant kinase binding site is determined. For example, if the triligand and ATP competed for the same binding pocket, the maximum velocity (Vmax) of the kinase would be unchanged while the Michaelis constant (KM) would increase. The plots can also be used as a means of determining the inhibition constant (Ki) of the triligand.
Akt-S473E-T308P was prepared by incubating 75 μg Akt-S473E with 1 μg PDK1 (Sigma) in the presence of 500 μM ATP in 1× reaction buffer (25 mM Tris-Cl (pH=7.5), 10 mM MgCl2, 2 mM DTT, 1× protease inhibitors (Roche), 1× phosphatase inhibitors (Roche)). The phosphorylation reaction proceeded for 40 minutes at room temperature followed by addition of 25 mM EDTA. The quenched reaction was added to 40 μL Anti-FLAG M2 agarose (Sigma) and allowed to bind for 2 hr at 4° C. The resin was washed in FLAG Wash Buffer (20 mM HEPES (pH=7.4), 150 mM NaCl, 1× protease inhibitors (Roche), 1× phosphatase inhibitors (Roche)) and the Akt1-S473E-T308P eluted with FLAG Elution Buffer (FLAG wash buffer+0.15 mg/mL 3×FLAG peptide) for 30 minutes at room temperature. The concentration of protein was determined by Bradford assay.

Akt-S473E [3] = conditions: [2H10] antibody directed toward the C-terminus
From the text: Immobilized anchor, biligand, and triligand were probed with varying concentrations of […]. Binding was detected by an anti-Akt1 monoclonal antibody ([2H10]) followed by an anti-mouse secondary antibody-HRP conjugate. The fraction bound was normalized and plotted against the concentration of Akt-S473E on a log scale.
The C-terminus is effectively on the “backside” of the kinase domain, opposite the active site.

MEK1 = MEK1 (Homo sapiens, UniProt Q02750); conditions: A450 normalized to Akt1-S473E binding
MEK1, sequence (Q02750 68-361 limits assumed, species assumed): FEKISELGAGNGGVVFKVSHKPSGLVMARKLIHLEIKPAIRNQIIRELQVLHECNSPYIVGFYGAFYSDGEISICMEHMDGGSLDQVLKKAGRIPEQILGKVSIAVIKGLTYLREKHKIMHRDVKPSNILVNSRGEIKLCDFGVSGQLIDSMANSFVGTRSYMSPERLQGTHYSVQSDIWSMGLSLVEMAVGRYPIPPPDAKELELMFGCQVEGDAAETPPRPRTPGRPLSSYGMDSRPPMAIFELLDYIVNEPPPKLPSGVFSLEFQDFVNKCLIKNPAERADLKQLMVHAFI
Description: as §1, §2
as §3, with “After 10 minutes at 4° C., the wells were washed three times with Akt blocking buffer and blocked overnight in 5% non-fat milk.” left out
The wells were washed three times in Akt blocking buffer and 50 μL of active protein was applied to each well. […] The A450 measured on a 96-well plate reader. […] The mean value for the triplicates was calculated and plotted and the error bars were generated from the standard error of the mean (GraphPad Prism).

Akt [4] = assay: Immunoprecipitation of Akt from OVCAR3 cell lysates with immobilized ligands; type: binding; conditions: EGF and insulin induced or control, Western blot with pan-Akt antibody
Description: A representative 12% gel stained with Coomassie and imaged. Lane 1: Lysate, Lane 2: Anchor resin, Lane 3: Biligand resin, Lane 4: Triligand resin, Lane 5: 5G3 mAb resin.
After 18 hours at 4° C., resins were washed exhaustively, eluted with SDS-PAGE sample buffer, and analyzed by Western blotting. 1. Blank resin, 2. Anchor, 3. Biligand, 4. Triligand, 5. [5G3] mAb, L. lysate.
For the IP experiments, the anchor, biligand, and triligands were immobilized on streptavidin-agarose, and each resin was panned with OVCAR3 cell lysates obtained from untreated cells or cells stimulated with a combination of epidermal growth factor (EGF) and insulin.
OVCAR3 cells were grown in RPMI-1640 media containing 10% fetal bovine serum, penicillin, and streptomycin. Passage 4 cells were grown to ˜60% confluence and treated with insulin and EGF at final concentration of 10 μg/mL and 20 ng/mL respectively (induced) or mock treated (control). Cells were grown for an additional 24 hours and then lysed with lysis buffer (10 mM Tris-Cl (pH=7.5), 100 mM NaCl, 1% (v/v) Triton X-100, 0.1% SDS (w/v), 0.5% deoxycholate, 1 mM DTT, 1 mM EDTA, 1× PhosStop phosphatase inhibitors (Roche), 1× Complete protease inhibitors (Roche). Cell lysate protein concentrations were determined by Bradford assays. […]

Akt [5] = biological target: T3, Akt (Homo sapiens, UniProt P31751); assay: Detection of Akt from OVCAR3 cell lysate by anti-Ser474 Akt2 capture agents; type: binding
T3 construct: endogenous in cells; host or cells: OVCAR3
T3 sequence (P31751 whole entry): as the sequence (P31751 whole entry, species assumed) above
From the text: The characteristics of this best ligand were improved through use of sequential in situ click chemistry, as described in Capture Agents and Related Compositions, Methods, and Systems CIT 5164-P; and Akt-Specific Capture Agents, Compositions, and Methods of Using and Making. CIT 5917-P, Agnew, et al., Angew. Chem. 121, p 5044-5048 (2009), and Millward, et al., J. Am. Chem. Soc. 133, 1820 (2011), incorporated herein by reference in their entireties. For these steps, the capture agent that was identified in Steps (1)-(4) was improved into a biligand (FIG. 36b), and then a triligand (FIG. 36c).

**Q.** How did the “imaging of Akt localisation” value (Akt [1]) turn out when “fluorescein-conjugated biligand: biligand with fluorescein derivative on the amino terminus of the secondary peptide (FIG. 17) (chain 1 C8N3-VFYRLGY-NH2; chain 2 FWFLRG-NH2; triazole I:N-II:N; not fully specified (N-terminus); reading uncertain; also: triazole linkage between chains, fluorescein on amino terminus of secondary peptide)” was run?
**A.** distinguishes cytoplasmic or membrane-bound AKT

**Q.** “dimer of the n-terminal triligand: dimerized n-terminal triligand targeted against Ser474 of Akt2 (FIG. 36E) (peptide 1 [dPra][dW][dK][dV][dK][dL]; peptide 2 FYGNH; peptide 3 YYRFG; numbers in words are those of the source; also: dimer of triligand, chains 2 and 3 stereochemistry not given here)” was tested. Which “effect on Akt kinase activity relative to DMSO” value (Akt2) did it give?
**A.** activate Akt

**Q.** What does the source list for `CCC(C)[C@H](NC(=O)[C@H](CCCNC(=N)N)NC(=O)[C@H](CCC(=O)O)NC(=O)[C@H](Cc1cnc[nH]1)NC(=O)[C@H](CCCNC(=N)N)NC(=O)C(CCCCCCCCn1cc(CCCC(=O)NC(CCCCCCCCn2cc(C[C@H](NC(C)=O)C(=O)N[C@@H](Cc3ccccc3)C(=O)N[C@@H](Cc3c[nH]c4ccccc34)C(=O)N[C@@H](Cc3ccccc3)C(=O)N[C@@H](CC(C)C)C(=O)NC(CCCNC(=N)N)C(=O)NCC(N)=O)nn2)C(=O)N[C@H](C(=O)N[C@@H](Cc2ccccc2)C(=O)N[C@@H](Cc2ccc(O)cc2)C(=O)N[C@@H](CCCNC(=N)N)C(=O)N[C@@H](CC(C)C)C(=O)NCC(=O)N[C@@H](Cc2ccc(O)cc2)C(=O)NCCNC(=O)CCCCC2SCC3NC(=O)NC32)C(C)C)nn1)NC(C)=O)C(N)=O` (some centres unmarked) [triligand]?
**A.** specificity / selectivity for Akt1 (Akt1): selectivity for Akt1 is clearly enhanced; affinity gain (Akt-S473E [2]): 2-3 fold; binding to GSK3β (GSK3β): significantly reduced; Kd (Akt1-S473E): 0.2 µM; Ki (Akt1-S473E-T308P; V vs. [ATP], variable [Triligand], Dixon plot, mean ± standard deviation): 4 µM; Ki (Akt1-S473E-T308P; V vs. [Peptide], variable [Triligand], Dixon plot, mean ± standard deviation): 2.6 µM; Ki (Akt1-S473E-T308P; read-out: X-intercept of 1/Vmax(app) vs. [Triligand], varied ATP, wide error range based on the 95% CI): 5.8 µM; Ki (Akt1-S473E-T308P; read-out: X-intercept of 1/Vmax(app) vs. [Triligand], varied peptide substrate): 1.7 µM; X-intercept (−Ki′) of 1/KM(app) vs. [Triligand] (Akt1-S473E-T308P; varied peptide substrate): 3.6 µM; Inhibition mode (Akt1-S473E-T308P; with respect to ATP): Noncompetitive; Inhibition mode (Akt1-S473E-T308P; with respect to peptide substrate): Uncompetitive; overlap of binding site with anti-Akt1 antibody (Akt-S473E [3]): may partially overlap; off-target binding to MEK1 (MEK1): completely eliminated; immunoprecipitation of Akt (Akt [4]): somewhat increased immunoprecipitation of Akt relative to the biligand in induced cell lysates but not in the non-induced control cell lysate

**Q.** “monoligand: peptide wkvkl (SEQ ID NO:4) coupled to Ac2-Tz4-PEG2-Biotin; targeted against Ser474 of Akt2 ([dW][dK][dV][dK][dL]-NH2; not fully specified (N-terminus); printed as wkvkl; also: coupled to Ac2-Tz4-PEG2-Biotin)” was tested. Which “detection of Akt from cell lysate” value (Akt [5]) did it give?
**A.** able to detect Akt from cell lysate
